One compound from patent US9512089B2, “Tetrazole-substituted arylamides as P2X3 and P2X2/3 antagonists” (Roche Palo Alto LLC, priority 2007, dated 2016) can be followed below.

The test has as its target T1, P2X2/3 receptor (Homo sapiens, UniProt P56373+Q9UBL9).
T1 construct: expressed in transfected cells; host or cells: CHO-K1
T1 sequence (P56373 1-397): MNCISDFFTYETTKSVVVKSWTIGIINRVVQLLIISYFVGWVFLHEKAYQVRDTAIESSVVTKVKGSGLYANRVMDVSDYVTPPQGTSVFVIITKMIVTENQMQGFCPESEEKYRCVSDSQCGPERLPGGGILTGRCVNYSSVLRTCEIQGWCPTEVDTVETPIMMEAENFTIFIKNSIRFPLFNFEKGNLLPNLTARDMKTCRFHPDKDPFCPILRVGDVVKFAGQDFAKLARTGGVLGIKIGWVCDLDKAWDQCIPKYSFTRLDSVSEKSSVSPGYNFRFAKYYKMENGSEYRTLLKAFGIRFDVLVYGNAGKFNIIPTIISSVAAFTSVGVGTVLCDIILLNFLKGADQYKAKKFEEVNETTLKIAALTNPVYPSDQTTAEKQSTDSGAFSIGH
T1 sequence (Q9UBL9 1-471): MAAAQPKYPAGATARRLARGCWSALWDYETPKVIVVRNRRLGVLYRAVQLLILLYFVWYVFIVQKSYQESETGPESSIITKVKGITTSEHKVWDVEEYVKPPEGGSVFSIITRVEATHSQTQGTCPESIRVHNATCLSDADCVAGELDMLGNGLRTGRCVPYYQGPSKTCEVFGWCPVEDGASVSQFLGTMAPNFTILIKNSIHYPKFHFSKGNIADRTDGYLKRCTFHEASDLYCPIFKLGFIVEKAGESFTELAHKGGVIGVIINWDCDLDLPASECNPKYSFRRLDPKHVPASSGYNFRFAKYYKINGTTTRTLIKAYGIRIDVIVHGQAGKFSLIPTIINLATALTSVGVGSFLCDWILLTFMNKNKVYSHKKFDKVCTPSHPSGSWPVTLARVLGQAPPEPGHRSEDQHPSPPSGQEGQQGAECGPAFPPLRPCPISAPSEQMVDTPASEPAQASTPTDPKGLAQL
The experiment in a line: P2X2/3 FLIPR (Fluorometric Imaging Plate Reader) assay. It counts as cell-based. The note with it: CHO-K1 cells transfected with human P2X2/3; agonist α,β-meATP 5 μM; Fluo-3 fluorescence. The protocol: CHO-K1 cells were transfected with cloned rat P2X3 or human P2X2/3 receptor subunits and passaged in flasks. 18-24 hours before the FLIPR experiment, cells were released from their flasks, centrifuged, and resuspended in nutrient medium at 2.5×10^5 cells/ml. The cells were aliquoted into black-walled 96-well plates at a density of 50,000 cells/well and incubated overnight in 5% CO2 at 37° C. On the day of the experiment, cells were washed in FLIPR buffer (calcium- and magnesium-free Hank's balanced salt solution, 10 mM HEPES, 2 mM CaCl2, 2.5 mM probenecid; FB). Each well received 100 μl FB and 100 μl of the fluorescent dye Fluo-3 AM [2 μM final conc.]. […]
Test compounds (dissolved in DMSO at 10 mM and serially diluted with FB) or vehicle were added to each well (25 μl of a 4× solution) and allowed to equilibrate for 20 minutes at room temperature. The plates were then placed in the FLIPR and a baseline fluorescence measurement (excitation at 488 nm and emission at 510-570 nm) was obtained for 10 seconds before a 100 μl/well agonist or vehicle addition. […] Fluorescence was measured for an additional 2 minutes at 1 second intervals after agonist addition. A final addition of ionomycin (5 μM, final concentration) was made to each well of the FLIPR test plate to establish cell viability and maximum fluorescence of dye-bound cytosolic calcium. […]

For orientation: IC50 means the concentration needed to halve the response being measured. Low values mean higher potency, high ones lower potency. Consider `CCc1nnnn1-c1cc(C(=O)NC(C)c2cnccn2)cc(-c2ccc(C)cc2)c1` (stereo not shown) [5-(5-ethyl-tetrazol-1-yl)-4′-methyl-biphenyl-3-carboxylic acid (1-pyrazin-2-yl-ethyl)-amide], for which the IC50 is about 7.94 nM.
